This assay deals with C-Raf FL (full length CRAF with Y340E and Y341E activating mutations, co-expressed with h14-3-3 zeta) (Homo sapiens (Human), UniProt P04049, Y340E/Y341E). The assay can be described thus: In vitro Raf activity determination, AlphaScreen p-MEK readout, c-Raf (C-Raf FL). The format is biochemical. The note with it: c-Raf approximately 4 nM, ATP 1 μM, pre-incubation 60 minutes, reaction 1 hour. The gist of the method:
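Phosphorylation of kinase-dead biotinylated MEK1 (~10 nM) by C-Raf FL (~4 nM) read by AlphaScreen luminescence with anti-phospho-MEK1/2 after EDTA stop. ATP was 1 μM, with a 1 h reaction at room temperature. Compounds were pre-incubated with enzyme and substrate for 60 min in Tris/MgCl2 buffer, pH 7.5.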
(Bead proximity is the source of the signal in Alpha formats.)

Here are results for 24 compounds from patent publication US10377770B2 (Novartis AG, priority 2015, dated 2019).

C-Raf FL (full length CRAF with Y340E and Y341E activating mutations, co-expressed with h14-3-3 zeta), sequence (P04049 whole entry Y340E/Y341E): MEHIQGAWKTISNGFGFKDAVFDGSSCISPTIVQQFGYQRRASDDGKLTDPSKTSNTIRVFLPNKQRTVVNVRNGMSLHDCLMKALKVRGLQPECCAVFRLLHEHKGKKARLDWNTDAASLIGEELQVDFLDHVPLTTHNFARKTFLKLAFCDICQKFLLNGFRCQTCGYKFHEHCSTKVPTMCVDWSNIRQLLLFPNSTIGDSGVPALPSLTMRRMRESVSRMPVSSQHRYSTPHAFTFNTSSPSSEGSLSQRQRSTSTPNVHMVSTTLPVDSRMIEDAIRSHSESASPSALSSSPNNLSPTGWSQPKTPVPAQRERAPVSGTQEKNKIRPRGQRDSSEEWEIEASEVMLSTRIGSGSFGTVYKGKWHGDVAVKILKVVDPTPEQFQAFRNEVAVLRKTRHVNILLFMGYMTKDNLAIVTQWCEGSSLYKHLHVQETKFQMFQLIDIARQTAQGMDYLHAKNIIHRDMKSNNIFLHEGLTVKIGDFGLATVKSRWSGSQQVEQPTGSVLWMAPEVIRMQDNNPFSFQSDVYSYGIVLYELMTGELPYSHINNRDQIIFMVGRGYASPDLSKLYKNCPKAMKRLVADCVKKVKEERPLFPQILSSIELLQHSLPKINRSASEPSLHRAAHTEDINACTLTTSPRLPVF
C-Raf FL (full length CRAF with Y340E and Y341E activating mutations, co-expressed with h14-3-3 zeta), sequence (P63104 whole entry partner): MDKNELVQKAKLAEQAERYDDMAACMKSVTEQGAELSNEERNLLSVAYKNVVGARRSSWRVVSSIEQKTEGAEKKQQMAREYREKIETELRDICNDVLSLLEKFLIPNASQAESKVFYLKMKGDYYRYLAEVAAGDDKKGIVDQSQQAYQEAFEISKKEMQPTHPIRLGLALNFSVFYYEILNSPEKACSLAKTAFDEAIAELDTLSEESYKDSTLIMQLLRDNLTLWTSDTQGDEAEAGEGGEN

Consider `CCN1C(=O)[C@H]2COCC[C@@H]2c2cc(-c3cc(NC(=O)c4ccnc(C(C)(C)F)c4)cnc3C)cnc21` [Example 310, N-(5-((4aR, 10bS)-6-ethyl-5-oxo-1,4,4a,5,6,10b-hexahydro-2H-pyrano[3,4-c][1,8]naphthyridin-9-yl)-6-methylpyridin-3-yl)-2-(2-fluoropropan-2-yl)isonicotinamide], for which the IC50 – broadly, the concentration that inhibits the measured activity by half – was 0.1 nM.
As for `CCN1C(=O)[C@@H]2COCC[C@H]2c2cc(-c3cc(NC(=O)c4ccnc(C(F)(F)F)c4)ccc3C)cnc21` [Example 311, N-(3-((4aS, 10bR)-6-ethyl-5-oxo-1,4,4a,5,6,10b-hexahydro-2H-pyrano[3,4 - c][1,8]naphthyridin-9-yl)-4-methylphenyl)-2-(trifluoromethyl) isonicotinamide], the figure is 0.1 nM.
As for `CCN1C(=O)[C@@H]2COCC[C@H]2c2cc(-c3cc(NC(=O)c4cccc(C(F)(F)F)c4)cnc3C)cnc21` [Example 312, N-(5-((4aS, 10bR)-6-ethyl-5-oxo-1,4,4a,5,6,10b-hexahydro-2H-pyrano[3,4-c][1,8]naphthyridin-9-yl)-6-methylpyridin-3-yl)-3-(trifluoromethyl) benzamide], the figure is 0.1 nM.
`CCN1C(=O)[C@@H]2COCC[C@H]2c2cc(-c3cc(NC(=O)c4ccnc(C(C)(C)F)c4)cnc3C)cnc21` [Example 313, N-(5-((4aS, 10bR)-6-ethyl-5-oxo-1,4,4a,5,6,10b-hexahydro-2H-pyrano[3,4-c][1,8]naphthyridin-9-yl)-6-methylpyridin-3-yl)-2-(2-fluoropropan-2-yl)isonicotinamide]: the IC50 is 0.5 nM. Compared with the last compound, the IC50 is about 5-fold higher.
`CCN1C(=O)CC2CCOCCN2c2cc(-c3cc(NC(=O)c4ccnc(C(F)(F)F)c4)ccc3C)cnc21` (stereo not drawn) [Example 314, N-(3-(8-ethyl-7-oxo-1,2,4,5,5a,6,7,8-octahydropyrido[3′, 2′:2,3][1,4]diazepino [1,7-d][1,4]oxazepin-11-yl)-4-methylphenyl)-2-(trifluoromethyl) isonicotinamide]: the half-inhibitory concentration (IC50) is 0.6 nM. The IC50 values of the last two compounds are within 1.5-fold of each other.
As for `CCN1C(=O)CC2CCOCCN2c2cc(-c3cc(NC(=O)c4cccc(C(F)(F)F)c4)cnc3C)cnc21` (stereo not drawn) [Example 315, N-(5-(8-ethyl-7-oxo-1,2,4,5,5a,6,7,8-octahydropyrido[3′, 2′:2,3][1,4]diazepino [1,7-d][1,4]oxazepin-11-yl)-6-methylpyridin-3-yl)-3-(trifluoromethyl) benzamide], the figure is 1.7 nM.
As for `CCN1C(=O)CC2CCOCCN2c2cc(-c3cc(NC(=O)c4ccnc(C(F)(F)F)c4)ccc3C)cnc21` (stereo not drawn) [Example 316, N-(3-(8-ethyl-7-oxo-1,2,4,5,5a,6,7,8-octahydropyrido[3′, 2′:2,3][1,4]diazepino [1,7-d][1,4]oxazepin-11-yl)-4-methylphenyl)-2-(trifluoromethyl) isonicotinamide], the figure is 0.8 nM.
As for `Cc1ccc(NC(=O)c2ccnc(C(F)(F)F)c2)cc1-c1cnc2c(c1)N1CCOCCC1CC(=O)N2CCO` (stereo not drawn) [Example 318, N-(3-(8-(2-hydroxyethyl)-7-oxo-1,2,4,5,5a,6,7,8-octahydropyrido[3′, 2′:2,3][1,4]diazepino [1,7-d][1,4]oxazepin-11-yl)-4-methylphenyl)-2-(trifluoromethyl) isonicotinamide], the figure is 1.4 nM; as for `Cc1ncc(NC(=O)c2cccc(C(F)(F)F)c2)cc1-c1cnc2c(c1)N1CCOCCC1CC(=O)N2CCO` (stereo not drawn) [Example 319, N-(5-(8-(2-hydroxyethyl)-7-oxo-1,2,4,5,5a,6,7,8-octahydropyrido[3′, 2′:2,3][1,4]diazepino [1,7-d][1,4]oxazepin-11-yl)-6-methylpyridin-3-yl)-3-(trifluoromethyl) benzamide], 2.2 nM; as for `Cc1ccc(NC(=O)c2ccnc(C(F)(F)F)c2F)cc1-c1cnc2c(c1)N1CCOC[C@H]1CC(=O)N2CCO` [Example 322, (R)-3-fluoro-N-(3-(7-(2-hydroxyethyl)-6-oxo-2,4,4a,5,6,7-hexahydro-1H-[1,4]oxazino[4,3-d]pyrido[2,3-b][1,4]diazepin-10-yl)-4-methylphenyl)-2-(trifluoromethyl) isonicotinamide], 0.3 nM.
For the compound `Cc1ccc(NC(=O)c2cnnc(C(F)(F)F)c2)cc1-c1cnc2c(c1)N1CCOC[C@H]1CC(=O)N2CCO` [Example 323, (R)-N-(3-(7-(2-hydroxyethyl)-6-oxo-2,4,4a,5,6,7-hexahydro-1H-[1,4]oxazino[4,3-d]pyrido[2,3-b][1,4]diazepin-10-yl)-4-methylphenyl)-6-(trifluoromethyl) pyridazine-4-carboxamide], inhibition was half-maximal at 0.2 nM (IC50).
`Cc1ccc(NC(=O)c2cnnc(C(F)(F)F)c2)cc1-c1cnc2c(c1)N1CCOC[C@@H]1CC(=O)N2CCO` [Example 324, (S)-N-(3-(7-(2-hydroxyethyl)-6-oxo-2,4,4a,5,6,7-hexahydro-1H-[1,4]oxazino[4,3-d]pyrido[2,3-b][1,4]diazepin-10-yl)-4-methylphenyl)-6-(trifluoromethyl) pyridazine-4-carboxamide]: it took 0.8 nM to reach half-maximal inhibition (IC50).
For `CCN1C(=O)C[C@@H]2COCCN2c2cc(-c3cc(NC(=O)c4cnnc(C(F)(F)F)c4)ccc3C)cnc21` [Example 325, (R)-N-(3-(7-ethyl-6-oxo-2,4,4a,5,6,7-hexahydro-1H-[1,4]oxazino[4,3-d]pyrido[2,3-b][1,4]diazepin-10-yl)-4-methylphenyl)-6-(trifluoromethyl) pyridazine-4-carboxamide], the half-maximal inhibitory concentration (IC50) worked out at 0.1 nM.
As for `CCN1C(=O)C[C@H]2COCCN2c2cc(-c3cc(NC(=O)c4cnnc(C(F)(F)F)c4)ccc3C)cnc21` [Example 326, (S)-N-(3-(7-ethyl-6-oxo-2,4,4a,5,6,7-hexahydro-1H-[1,4]oxazino[4,3-d]pyrido[2,3-b][1,4]diazepin-10-yl)-4-methylphenyl)-6-(trifluoromethyl) pyridazine-4-carboxamide], the figure is 0.5 nM; as for `CCN1C(=O)C[C@@H]2COCCN2c2cc(-c3cc(NC(=O)c4ccnc(C(F)(F)F)c4F)ccc3C)cnc21` [Example 327, (R)-N-(3-(7-ethyl-6-oxo-2,4,4a,5,6,7-hexahydro-1H-[1,4]oxazino[4,3-d]pyrido[2,3-b][1,4]diazepin-10-yl)-4-methylphenyl)-3-fluoro-2-(trifluoromethyl) isonicotinamide], 0.3 nM.
As for `CCN1C(=O)C[C@@H]2COCCN2c2cc(-c3cc(NC(=O)c4cncc(C(F)(F)F)c4)ccc3C)cnc21` [Example 328, (R)-N-(3-(7-ethyl-6-oxo-2,4,4a,5,6,7-hexahydro-1H-[1,4]oxazino[4,3-d]pyrido[2,3-b][1,4]diazepin-10-yl)-4-methylphenyl)-5-(trifluoromethyl) nicotinamide], the figure is 0.1 nM; as for `Cc1ccc(NC(=O)c2cncc(C(F)(F)F)c2)cc1-c1cnc2c(c1)N1CCOC[C@H]1CC(=O)N2CCO` [Example 329, (R)-N-(3-(7-(2-hydroxyethyl)-6-oxo-2,4,4a,5,6,7-hexahydro-1H-[1,4]oxazino[4,3-d]pyrido[2,3-b][1,4]diazepin-10-yl)-4-methylphenyl)-5-(trifluoromethyl) nicotinamide], 0.2 nM; as for `Cc1ccc(NC(=O)c2ccnc(C(F)(F)F)c2)cc1-c1cnc2c(c1)C1CCOCC1OC(=O)N2CCO` (stereo not drawn) [Example 330, N-(3-((4,11b-cis)-7-(2-hydroxyethyl)-6-oxo-2,4,4a,6,7,11b-hexahydro-1H-pyrano[4,3-f]pyrido[2,3-d][1,3]oxazepin-10-yl)-4-methylphenyl)-2-(trifluoromethyl) isonicotinamide], 3.1 nM.
As for `Cc1ccc(NC(=O)c2ccnc(C(F)(F)F)c2F)cc1-c1cnc2c(c1)C1CCOCC1OC(=O)N2CCO` (stereo not drawn) [Example 331, 3-fluoro-N-(3-((4,11b-cis)-7-(2-hydroxyethyl)-6-oxo-2,4,4a,6,7,11b-hexahydro-1H-pyrano[4,3-f]pyrido[2,3-d][1,3]oxazepin-10-yl)-4-methylphenyl)-2-(trifluoromethyl) isonicotinamide], the figure is 6.6 nM; as for `Cc1ccc(NC(=O)c2ccnc(C(C)(F)F)c2)cc1-c1cnc2c(c1)C1CCOCC1OC(=O)N2CCO` (stereo not drawn) [Example 332, 2-(1,1-difluoroethyl)-N-(3-((4,11b-cis)-7-(2-hydroxyethyl)-6-oxo-2,4,4a,6,7,11b-hexahydro-1H-pyrano[4,3-f]pyrido[2,3-d][1,3]oxazepin-10-yl)-4-methylphenyl) isonicotinamide], 2.1 nM.
The compound `Cc1ccc(NC(=O)c2ccnc(C(F)(F)F)c2)cc1-c1cnc2c(c1)N1CCOCC1C(C)(C)C2O` (stereo not drawn) [Example 335, N-(3-(6-hydroxy-5,5-dimethyl-1,2,4,4a,5,6-hexahydro-[1.4]oxazino[4,3-a][1.5]naphthyridin-9-yl)-4-methylphenyl)-2-(trifluoromethyl) isonicotinamide] yielded a half-maximal inhibitory concentration (IC50) of 0.1 nM. Compared with the last compound, the IC50 is about 21-fold lower.
`Cc1ccc(NC(=O)c2ccnc(C(F)(F)F)c2F)cc1-c1cnc2c(c1)N1CCOCC1C(C)(C)C2O` (stereo not drawn) [Example 336, 3-fluoro-N-(3-(6-hydroxy-5,5-dimethyl-1,2,4,4a,5,6-hexahydro-[1,4]oxazino[4,3-a][1,5]naphthyridin-9-yl)-4-methylphenyl)-2-(trifluoromethyl) isonicotinamide] registered a half-inhibitory concentration (IC50) of 0.2 nM.
Turning to `Cc1ccc(NC(=O)c2ccnc(C(F)(F)F)c2F)cc1-c1cnc2c(c1)N1CCOCC1C(C)(C)C2O` (stereo not drawn) [Example 337, 3-fluoro-N-(3-(6-hydroxy-5,5-dimethyl-1,2,4,4a,5,6-hexahydro-[1,4]oxazino[4,3-a][1,5]naphthyridin-9-yl)-4-methylphenyl)-2-(trifluoromethyl) isonicotinamide], inhibition was half-maximal at 0.3 nM (IC50).
Turning to `CCN1C(=O)C2(F)COCC[C@@H]2c2cc(-c3cc(NC(=O)c4ccnc(C(C)(F)F)c4)ccc3C)cnc21` (stereo partly drawn) [Example 338, 2-(1,1-difluoroethyl)-N-(3-((10bR)-6-ethyl-4a-fluoro-5-oxo-2,4,4a,5,6,10b-hexahydro-1H-pyrano[3,4-c][1,8]naphthyridin-9-yl)-4-methylphenyl)isonicotinamide], it took 0.5 nM to reach half-maximal inhibition (IC50).
